In patent US11819533B2, “Compositions and methods for the treatment of fungal infections” (Cidara Therapeutics, Inc., priority 2017, dated 2023):
Starred links: 1 amine or outer side, 2 acyl side, 3 side chain; linkers in the order of their positions; H or OH if unused. Positions of bridges follow the written chain, without caps; N, C: chain ends. Non-standard residues stand in square brackets, D forms with d. Residues, ends and D or L forms follow the SMILES beside them. *: point of attachment. Orn(4R-OH,5R-OCH2CH2NMe3+) = C[N+](C)(C)CCO[C@@H](N[*:3])[C@H](O)C[C@H](N[*:1])C(=O)[*:2]; pTerphenylCO(4''-OnC5H11) = CCCCCOc1ccc(-c2ccc(-c3ccc(C(=O)*)cc3)cc2)cc1; Orn(4R-OH,5R-OH) = O=C([C@H](C[C@@H](O)[C@@H](O)N[*:3])N[*:1])[*:2]; hTyr(3S-OH,4S-OH) = N[C@H](C(=O)O)[C@H](O)[C@@H](O)c1ccc(O)cc1; Pro(3S-OH,4S-Me) = C[C@H]1CN[C@H](C(=O)O)[C@H]1O; Hyp = O=C(O)[C@@H]1C[C@@H](O)CN1

What was measured:
Candida auris = Candida auris infection in a murine model of disseminated candidiasis; assay type: in vivo; conditions: immunosuppressed CD-1 mice; for Percent survival at the end of the study: day 14, CD101 20 mg/kg IP, fluconazole 20 mg/kg PO, amphotericin B 0.3 mg/kg IP, doses on day 1 and day 4
Description: Female 6-8 week old CD-1 mice were immunosuppressed with cyclophosphamide (200 mg/kg) 3 days prior to infection and 150 mg/kg 1 day post-infection. On the day of infection, mice were inoculated with 3×10^7 C. auris blastospores via the lateral tail vein. Mice were randomized into 5 groups (n=5 for colony forming units (CFU) and n=10 for survival): CD101 20 mg/kg administered by intraperitoneal (IP) injection, fluconazole 20 mg/kg administered per os (PO), amphotericin B 0.3 mg/kg IP, and a vehicle control. Treatments were administered 2 hours post-infection (day 1) and again on day 4 of the study for a total of 2 doses. Mice were monitored daily and a survival curve was generated. CFU groups were sacrificed on day 8 of the study. One kidney was removed from each mouse, homogenized, plated on potato dextrose agar (PDA), and incubated at 35° C. for 2 days to determine CFU. The remaining survival mice were monitored until the end of the study (day 14).

[1] = test system: C. albicans SC-5314 biofilms; assay: Activity against adhesion phase biofilms (prevention), XTT and CSLM; assay type: cell-based, Candida albicans; conditions: for CSLM biofilm architecture, adhesion phase / Metabolic activity (XTT) of adhesion phase biofilms compared to untreated: 24 h exposure, CD101 0.25 and 1 μg/ml, fluconazole 1 and 4 μg/ml; for Thickness of biofilms, adhesion phase: CSLM, untreated control 36 μm
Description: (§1) C. albicans SC-5314 was used for the current study.
(§2) In this study, biofilms were grown in vitro using a biofilm model (Chandra et al., Nature Protocols 3:1909, 2008) and the effect of CD101 on adhesion phase biofilms (representing prevention of biofilms) or mature phase biofilms (representing treatment of biofilms) was determined.
(§3) Biofilms were formed on silicone elastomer (SE) discs using a catheter-associated-biofilm model (Chandra et al., Nature Protocols 3:1909, 2008; Chandra et al., J. Bacteriol. 183: 5385, 2001; Chandra et al., J. Dental Research 80: 903, 2001). For evaluation of activity against adhesion phase biofilms (prevention), Candida cells were adhered to catheter discs for 90 min. […] For evaluation of activity against mature phase biofilms (treatment), Candida cells were adhered to catheter discs for 90 min, then transferred to fresh media and incubated for a further 24 h to allow formation of biofilms. […] Discs incubated with fluconazole or media alone were used as controls in all experiments.
(§4) At the end of drug exposure in both adhesion and mature phase biofilms, biofilms were quantified by measuring their metabolic activity using XTT assay (Chandra et al., Nature Protocols 3:1909, 2008; Chandra et al., J. Bacteriol. 183: 5385, 2001; Chandra et al., J. Dental Research 80: 903, 2001). Following incubation with drugs, discs were transferred to fresh plates containing phosphate buffered saline with XTT and menadione, incubated for 3 h at 37° C. and optical density was read at 492 nm. Separate batches of biofilms were stained with fluorescent dyes (FUN1™, CONA) and observed under Confocal Scanning Laser Microscope (CSLM) to evaluate biofilm architecture and thickness (Chandra et al., Nature Protocols 3:1909, 2008; Chandra et al., J. Bacteriol. 183: 5385, 2001).

[2] = test system: C. albicans SC-5314 biofilms; assay: Activity against mature phase biofilms (treatment), XTT and CSLM; assay type: cell-based, Candida albicans; conditions: for CSLM biofilm architecture, mature phase / Metabolic activity (XTT) of mature phase biofilms compared to untreated: 24 h exposure of mature biofilms, CD101 0.25 and 1 μg/ml, fluconazole 1 and 4 μg/ml; for Thickness of biofilms, mature phase: CSLM, untreated control 43 μm
Description: as §1, §2, §3, §4

[3] = PBS buffer drop test (Example 3); assay type: physicochemical; conditions: 0.50% Tween 80, 0.76% mannitol, 0.125% sodium lactate in 3.5% dextrose solution, pH ~5.5; 2 mg/mL, 0.47 mg/mL in PBS
Description: These solutions were tested for solubility in the PBS drop test, which involved adding the solution dropwise into PBS solution (1:4.3 dilution) and visually observing the resulting solution for any precipitation. PBS buffer serves as a surrogate for plasma, and the PBS drop test is used to evaluate the potential for insolubility as the drug enters the bloodstream at the injection site.

[4] = PBS drop test of CD101 IV formulations (Example 4); assay type: physicochemical; conditions: 6 mg/mL in 1.25% Tween 80, 5% mannitol, 0.3% glacial acetic acid, pH ~4.5; 0.25 mL into 1 mL PBS
Description: Solubility of CD101-containing formulations with different percentages of Tween 80 (also referred to as polysorbate 80) was evaluated in a “PBS drop test.” This involved preparing a known concentration of CD101 in a formulation and injecting the formulation into PBS to visually examine for precipitation. This test was used to assess if a CD101-containing formulation would remain soluble in blood during IV infusions.
(1) 1.25% Tween 80, 5% mannitol, 0.3% glacial acetic acid, pH ˜4.5
(2) 0.50% Tween 80, 0.76% mannitol, 0.125% sodium lactate in 3.5% dextrose solution, pH ˜5.5
Different concentrations of CD101 acetate were prepared in vehicles (1) and (2) and tested for solubility in the PBS drop test.
Add dropwise the formulated solution into PBS solution (1:4 dilution). Visually observe the resulting solution upon addition for any precipitation.

[5] = test system: C. albicans SC-5314 biofilms; assay: Time lapse microscopy of biofilm formation; assay type: cell-based, Candida albicans; conditions: followed up to 16 h
Source text: The effective CD101 concentration obtained from the above experiments was used to monitor its effect on biofilm formation in real time using TLM, which involves capturing real-time images of a single frame at specific time intervals, allowing temporal monitoring of the interactions occurring between the drug and Candida biofilms. Captured images were combined in a time sequence, resulting in an animation depicting the sequence of events that occurred with the passage of time. Briefly, the discs with C. albicans (adhered for 90 min as above) were placed in a 35-mm-diameter glass-bottom Petri dish (MatTek Corp., Ashland, MA). […] Phase contrast images for this interaction were captured immediately from 0 h and followed up to 16-17 h on a Leica DMI 6000 B inverted microscope connected to a Retiga EXi Aqua camera (Q-imaging Vancouver British Columbia). To determine the structural changes in the maturing biofilm, both acquisition and analysis of a series of horizontal (xy) optical sections of the biofilm was done using Metamorph Imaging software (Molecular Devices, Downington, PA). Disc incubated with media alone was used as control.

Sprague Dawley rats = assay: 14-day repeat-dose intravenous infusion toxicity study; assay type: in vivo
Description: The primary purpose of this study was to evaluate the toxicity of CD101 when administered intravenously as a 20-minute infusion into the lateral tail vein of Sprague Dawley rats for fourteen consecutive days. A positive control group (Eraxis®) with a similar structure and pharmacodynamic activity was included in the study design.
The test article, CD101 acetate, was a white to off-white powder. The test article was prepared into dosing formulations for intravenous dose administration. One hundred experimentally naïve Sprague Dawley rats (50 males and 50 females), a minimum of 8 weeks old and weighing 255-318 grams (males) and 192-215 (females) at the outset of the study were assigned to treatment groups as shown in Table 7 below:
All animals were dosed on Days 1 through 3 inclusive. As a result of tail vein irritation observed among all study groups, dose administration was suspended on Day 4 to allow the tails to recover. Dosing resumed on Day 5 and continued for a maximum of ten additional days (Days 5 through 14 inclusive). Animals that could no longer be dosed during this time remained on study.
Male and female Sprague Dawley rats were to receive CD101 acetate at doses of 0, 2, 6 and 20 mg/kg/day (Groups 1, 3, 4 and 5, respectively) or Eraxis® (the positive control article, Group 2) at a dose of 40 mg/kg/day, intravenously as a 20 minute infusion into the left or right lateral tail vein for fourteen consecutive days. During the first three treatment days, all animals were dosed with the first vehicle used on this study (1.75% Tween 80/5% Dextrose: Groups 1 and 3-5; 5% Dextrose: Group 2). As a result of the localized tail swelling observed during the first three days of treatment, study Day 4 served as a drug-free day to alleviate tail vein irritation. Dose administration resumed on Day 5 using a new vehicle (5% Mannitol/2.5% Tween 80/0.3% acetic acid: Groups 1 and 3-5; 5% Mannitol/0.3% acetic acid: Group 2) for the remainder of the treatment period (Days 5-14). Those animals that could no longer be dosed because of severe vein irritation were retained on study, untreated, until the end of the study (Day 15).

Structure (SMILES)	Percent survival at the end of the study (Candida auris)	CSLM biofilm architecture, adhesion phase [1]	Metabolic activity (XTT) of adhesion phase biofilms compared to untreated [1]	Thickness of biofilms, adhesion phase [1]	CSLM biofilm architecture, mature phase [2]	Metabolic activity (XTT) of mature phase biofilms compared to untreated [2]	Thickness of biofilms, mature phase [2]	Appearance upon PBS drop test [3]	Time the formulated solution remained soluble in PBS [4]	Average reduction in kidney CFU compared to fluconazole, amphotericin B and vehicle treated groups (Candida auris; 20 mg/kg IP on day 1 and day 4, kidney on day 8)	Temporal effect on 3 h formed biofilms (time lapse) ([5]; 0.25 μg/ml added after 3 h biofilm formation)	Temporal effect on formation of biofilms (time lapse) ([5]; 0.25 μg/ml added to cells adhered for 90 min)	Incidence of tail vein irritation (Sprague Dawley rats; Days 1-3, first vehicle (1.75% Tween 80 and 5% Dextrose for CD101 acetate; 5% Dextrose for Eraxis), Eraxis 40 mg/kg/day, CD101 acetate 6 and 20 mg/kg/day, males and females)	Vein irritation compared to Groups 1, 3 and 4 (Sprague Dawley rats; Days 5-14, second vehicle (5% Mannitol, 2.5% Tween 80, 0.3% Acetic Acid for CD101 acetate; 5% Mannitol and 0.3% Acetic Acid for Eraxis), Eraxis 40 mg/kg/day, CD101 acetate 20 mg/kg/day)	Animals dosed for less than the intended ten-day duration (Days 5-14) as a result of tail swelling/lesions (Sprague Dawley rats; males, 40 mg/kg/day (Group 2), 20-minute IV infusion, second vehicle 5% Mannitol/0.3% acetic acid)
OC(Cn1cncn1)(Cn1cncn1)c1ccc(F)cc1F [fluconazole, reference compound]	0%	did not inhibit biofilm formation	did not inhibit biofilm formation	no effect on biofilm thickness	did not affect Candida biofilms	neither concentrations of fluconazole (1 and 4 μg/ml) affected these biofilms	no effect	–	–	–	–	–	–	–	–
CCCCCOc1ccc(-c2ccc(-c3ccc(C(=O)N[C@H]4C[C@@H](O)[C@@H](OCC[N+](C)(C)C)NC(=O)[C@@H]5[C@@H](O)[C@@H](C)CN5C(=O)[C@H]([C@@H](C)O)NC(=O)[C@H]([C@H](O)[C@@H](O)c5ccc(O)cc5)NC(=O)[C@@H]5C[C@@H](O)CN5C(=O)[C@H]([C@@H](C)O)NC4=O)cc3)cc2)cc1 [CD101] ({pTerphenylCO(4''-OnC5H11)}-[Orn(4R-OH,5R-OCH2CH2NMe3+)]T[Hyp][hTyr(3S-OH,4S-OH)]T[Pro(3S-OH,4S-Me)]; lactam 1-C)	80%	only remnants of adhered cells, and no biofilm maturation	formed significantly less biofilms	4 μm	eradicated and showed bulged, deformed/broken cells	significantly less metabolic activity	24 μm	Clear	at least 1 hour	3 log	remained stunted and failed to grow into mature biofilms	only adhered cells with stunted growth, which failed to grow into mature biofilms	–	–	–
C[C@@H]1[C@H](O)[C@@H](C)/C=C/C=C/C=C/C=C/C=C/C=C/C=C/[C@H](O[C@@H]2O[C@H](C)[C@@H](O)[C@H](N)[C@@H]2O)C[C@@H]2O[C@](O)(C[C@@H](O)C[C@@H](O)[C@H](O)CC[C@@H](O)C[C@@H](O)CC(=O)O[C@H]1C)C[C@H](O)[C@H]2C(=O)O [amphotericin B, reference compound]	30%	–	–	–	–	–	–	–	–	–	–	–	–	–	–
CCCCCOc1ccc(-c2ccc(-c3ccc(C(=O)N[C@H]4C[C@@H](O)[C@@H](O)NC(=O)[C@@H]5[C@@H](O)[C@@H](C)CN5C(=O)[C@H]([C@@H](C)O)NC(=O)[C@H]([C@H](O)[C@@H](O)c5ccc(O)cc5)NC(=O)[C@@H]5C[C@@H](O)CN5C(=O)[C@H]([C@@H](C)O)NC4=O)cc3)cc2)cc1 [Eraxis®, Anidulafungin, reference compound] ({pTerphenylCO(4''-OnC5H11)}-[Orn(4R-OH,5R-OH)]T[Hyp][hTyr(3S-OH,4S-OH)]T[Pro(3S-OH,4S-Me)]; lactam 1-C)	–	–	–	–	–	–	–	–	–	–	–	–	highest	only marginally higher	30%
